Assay [1] is described as follows: Antiinflammatory activity in human THP1 cells assessed as inhibition of LPS-stimulated TNFalpha production. To be noted: THP-1.
Assay [2] in a line: Antiinflammatory activity in human THP1 cells assessed as inhibition of LPS-stimulated TNFalpha production at […] uM. Conditions: THP-1. The class given is functional.
Assay [3] has as its target MAP kinase-activated protein kinase 2 (Homo sapiens) (UniProt P49137). As to the kind of experiment: Inhibition of MK2 (unknown origin) at 50 uM by scintillation proximity assay. (In general: In a scintillation proximity assay essentially only radioactivity close to the scintillant gives light.)
A short description of assay [4]: Antiinflammatory activity in human THP1 cells assessed as inhibition of LPS-stimulated TNFalpha production at 50 uM. The class given is functional. To be noted: THP-1.
Assay [5] can be described thus: Ratio of IC50 for human THP1 cells assessed as inhibition of LPS-stimulated TNFalpha production to IC50 for MK2 (unknown origin). More on the design: species or system THP-1.

By IC50 is commonly meant the point on the concentration scale where inhibition reaches its midpoint. As usually defined, the inhibition is the relative decrease from the control value, in per cent.

Chain of MAP kinase-activated protein kinase 2 (Homo sapiens) (P49137 whole entry, looked up): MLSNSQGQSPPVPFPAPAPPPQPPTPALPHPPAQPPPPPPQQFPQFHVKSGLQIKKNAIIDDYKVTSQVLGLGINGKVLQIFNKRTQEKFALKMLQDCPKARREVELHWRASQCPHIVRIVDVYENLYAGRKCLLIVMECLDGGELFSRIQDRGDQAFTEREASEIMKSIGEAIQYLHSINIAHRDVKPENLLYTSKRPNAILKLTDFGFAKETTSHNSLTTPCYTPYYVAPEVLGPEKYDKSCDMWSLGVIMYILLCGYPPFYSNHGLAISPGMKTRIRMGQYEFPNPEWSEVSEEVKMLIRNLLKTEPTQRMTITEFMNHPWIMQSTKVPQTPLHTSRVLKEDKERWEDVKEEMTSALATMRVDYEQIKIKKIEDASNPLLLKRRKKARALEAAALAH

For `CCCc1cnc(N)c(CN/C(=N\C#N)Nc2ccc3[nH]c(=O)oc3c2)n1`, in assay [1], the IC50 is 42 µM.

Turning to `CCCc1cnc(N)c(CNC(=O)Nc2ccc3[nH]c(=O)oc3c2)n1`, the IC50 in assay [1] was greater than 12.5 µM. For the same molecule, the inhibition at 12.5 µM in assay [2] came to 34%.

In turn, `Nc1ncc(Cl)nc1-c1nc(N2CCc3ccccc32)no1` returned an inhibition in assay [3] of 20%.

Consider `Nc1ncc(C2CC2)nc1CNC(=O)Nc1ccc2[nH]c(=O)oc2c1`, for which the 50% inhibitory concentration (IC50) in assay [1] was greater than 12.5 µM. In assay [2], the inhibition at 12.5 µM was determined as 45%.

As to `CO/N=C(\NCc1nc(Cl)cnc1N)Nc1ccc(NC(=O)OC(C)(C)C)cc1`, the inhibition at 50 µM in assay [4] turned out to be 40%. Besides, in assay [1], the half-inhibitory concentration (IC50) was greater than 50 µM.

In assay [3], `Nc1ncc(Cl)nc1CNc1nc2ccccc2s1` came in with an inhibition of 36%.

Regarding `Nc1ncc(C2CC2)nc1CN/C(=N\C(=O)c1ccc(Cl)cc1)Nc1ccc2[nH]c(=O)oc2c1`, the concentration for half-maximal inhibition (IC50) in assay [1] is 8.8 µM.

As to `CC(C)(C)OC(=O)Nc1ccc(N/C(=N/C#N)NCc2nc(C3CC3)cnc2N)cc1`, the IC50 in assay [1] is 10.2 µM.

Take `Nc1ncc(Cl)nc1CNC(=S)Nc1ccccc1`: in assay [1], the IC50 stood at 7.9 µM. For the same molecule, the “Ratio IC50” value in assay [5] was found to be 4.

For `CCOC(=O)/N=C(\NCc1nc(C2CC2)cnc1N)Nc1ccc2[nH]c(=O)oc2c1`, the half-inhibitory concentration (IC50) in assay [1] came to 13 µM.

With `Cc1ccc(C(=O)/N=C(\NCc2nc(C3CC3)cnc2N)Nc2ccc3[nH]c(=O)oc3c2)cc1`, the IC50 in assay [1] turned out to be 3.9 µM.

(Values after ChEMBL document CHEMBL3627620, “Design, synthesis, and biological evaluation of aminopyrazine derivatives as inhibitors of mitogen-activated protein kinase-activated protein kinase 2 (MK-2)” (Bioorg Med Chem Lett, 2015).)
